Where two headings read alike, the source gives them in different places.
Experiments:
[1] = tested on: A. baumannii; test: MIC, broth microdilution, CDC/FDA Antibiotic Resistance Isolate Bank (Example 7, Tables 9, 13, 14); assay type: cell-based, Acinetobacter baumannii
[2] = tested on: Enterobacterales; test: MIC, broth microdilution, CDC/FDA Antibiotic Resistance Isolate Bank (Example 7, Tables 8, 11, 12); assay type: cell-based; settings: for MIC: read-out: MIC
[3] = MIC distribution, metallo-β-lactamase-producing A. baumannii, inhibitor µg/mL in parentheses

CC(C)(O/N=C(\C(=O)N[C@@H]1C(=O)N2C(C(=O)[O-])=C(C[N+]3(CCNC(=O)c4ccc(O)c(O)c4Cl)CCCC3)CS[C@H]12)c1csc(N)n1)C(=O)O [Cefiderocol, cefiderocol]
16 µg/mL: MIC ([2]; Escherichia coli, KUB No. 5646, AR Bank # 149)
2 µg/mL: MIC90 ([2]; 154 strains of Enterobacterales, read-out: MIC90) | MIC ([2]; Enterobacter cloacae, Enterobacter cloacae KUB No. 5792, AR Bank #448) | MIC ([2]; Enterobacter cloacae, KUB No. 5547, AR Bank# 50) | MIC ([2]; Escherichia coli, Escherichia coli KUB No. 5803, AR Bank #861) | MIC ([2]; Escherichia coli, KUB No. 5615, AR Bank # 118) | MIC ([2]; Escherichia coli, KUB No. 5625, AR Bank # 128) | MIC ([2]; Escherichia coli, KUB No. 5634, AR Bank # 137)
0.25 µg/mL: MIC ([2]; Enterobacter cloacae, KUB No. 5562, AR Bank # 65) | MIC ([2]; Enterobacter cloacae, KUB No. 5569, AR Bank # 72) | MIC ([2]; Enterobacter cloacae, KUB No. 5570, AR Bank # 73) | MIC ([2]; Enterobacter cloacae, KUB No. 5590, AR Bank # 93) | MIC ([2]; Enterobacter cloacae, KUB No. 5660, AR Bank # 163) | MIC ([2]; Enterobacter cloacae, KUB No. 5761, AR Bank # 365) | MIC ([2]; Enterobacter cloacae, KUB No. 5762, AR Bank # 366) | MIC ([2]; Enterobacter clooreae, KUB No. 5633, AR Bank # 136) | MIC ([2]; Escherichia coli, Escherichia coli KUB No. 5783, AR Bank #437) | MIC ([2]; Escherichia coli, Escherichia coli KUB No. 5794, AR Bank #450) | MIC ([2]; Escherichia coli, KUB No. 5578, AR Bank # 81) | MIC ([2]; Escherichia coli, KUB No. 5611, AR Bank # 114)
≤ 0.06 µg/mL: MIC ([2]; Escherichia coli, KUB No. 5558, AR Bank # 61) | MIC ([2]; Escherichia coli, KUB No. 5574, AR Bank # 77) | MIC ([2]; Escherichia coli, KUB No. 5586, AR Bank # 89)
2: Number of isolates at MIC 2 µg/mL [1, 3]
0.5 µg/mL: MIC50 ([2]; 154 strains of Enterobacterales, read-out: MIC50) | MIC ([2]; Enterobacter cloacae, Enterobacter cloacae complex, KUB No. 5661, AR Bank # 164) | MIC ([2]; Enterobacter cloacae, Enterobacter cloacae group, KUB No. 5629, AR Bank # 132) | MIC ([2]; Enterobacter cloacae, KUB No. 5535, AR Bank# 38) | MIC ([2]; Escherichia coli, Escherichia coli KUB No. 5795, AR Bank #451) | MIC ([2]; Escherichia coli, KUB No. 5581, AR Bank # 84) | MIC ([2]; Escherichia coli, KUB No. 5616, AR Bank # 119)
4 µg/mL: MIC90 ([1]; Acinetobacter baumannii, 55 isolates of A. baumannii, read-out: MIC90) | MIC ([2]; Enterobacter cloacae, KUB No. 5557, AR Bank# 60) | MIC ([2]; Enterobacter cloacae, KUB No. 5778, AR Bank # 432) | MIC ([2]; Enterobacter cloaccae, KUB No. 5651, AR Bank # 154) | MIC ([2]; Escherichia coli, KUB No. 5647, AR Bank # 150) | MIC ([2]; Escherichia coli, KUB No. 5648, AR Bank # 151)
1: Number of isolates at MIC 16 µg/mL [1, 3]
0.12 µg/mL: MIC ([2]; Enterobacter cloacae, KUB No. 5550, AR Bank# 53) | MIC ([2]; Escherichia coli, KUB No. 5564, AR Bank # 67) | MIC ([2]; Escherichia coli, KUB No. 5582, AR Bank # 85) | MIC ([2]; Escherichia coli, KUB No. 5583, AR Bank # 86)
1 µg/mL: MIC80 ([2]; 154 strains of Enterobacterales, read-out: MIC80) | MIC ([2]; Citrobacter freundii, KUB No. 5654, AR Bank # 157) | MIC ([2]; Enterobacter cloacae, Enterobacter cloacae KUB No. 5807, AR Bank #501) | MIC ([2]; Enterobacter cloacae, Enterobacter cloacae KUB No. 5808, AR Bank #502) | MIC ([2]; Enterobacter cloacae, KUB No. 5763, AR Bank # 367) | MIC ([2]; Escherichia coli, Escherichia coli KUB No. 5796, AR Bank #452) | MIC ([2]; Escherichia coli, KUB No. 5566, AR Bank # 69) | MIC ([2]; Escherichia coli, KUB No. 5601, AR Bank # 104)
